Test results: patent US20240082406A1, “BENZOHETEROCYCLE SUBSTITUTED TETRAHYDROISOQUINOLINE COMPOUND” (SHANGHAI JEMINCARE PHARMACEUTICAL CO., LTD, priority 2020, published 2024)

What was measured:
Sprague-Dawley rats [1] = assay: Inhibition of phosphate and sodium absorption in the intestine of rats by a single dose; type: in vivo, rat; conditions: normal rats
Procedure: Compound D1-P1-S was evaluated by measuring urinary phosphorus, urinary sodium concentration and fecal form.
(§1) Six-week-old Sprague-Dawley rats were purchased from Beijing Vital River Laboratory Animal Technology Co., Ltd. Two animals per cage were placed in SPF class animal rooms for acclimatization for about a week. Throughout the study period, animals were fed feed and water freely and the light cycle was 12 h light/12 h dark. Animal groups: vehicle group, n=5; tenapanor 0.3 mg/kg group, n=5; D1-P1-S 0.03 mg/kg group, n=5; D1-P1-S 0.1 mg/kg, n=5; D1-P1-S 0.3 mg/kg, n=5; D1-P1-S1.0 mg/kg, n=5.
On the day of the experiment, after 8 hours of fasting, the animals were administered the test compound or solvent (0.5% Tween 80+99.5% distilled water) by gavage. The animals were then transferred into metabolic cages for single-cage feeding, and the feed was restored. After 16 hours of administration, urine samples were collected and food consumption was recorded, and the fecal form in the collection funnel was evaluated by two independent observations. Standard for fecal form score: 1, normal pellets; 2, slightly soft feces (pellets adhered to the side wall of the collector due to moisture); 3, soft feces (loss the normal shape of the pellets); 4, loose and amorphous (completely loss shape, with blot pattern); 5, diarrhea (watery feces). Fecal form score (FFS) in rats was determined by averaging two independent observation scores for all rats within the same group (n=5); the vehicle group mean was 1.
The urine was centrifuged at 3220 g for 5 minutes at 4° C., and the urinary phosphorus concentration (phosphomolybdic acid UV endpoint colorimetric method) and urinary sodium concentration (ion selective electrode method) were measured.
(§2) Results were indicated as mean±standard error (Means±SEM). Urinary phosphorus excretion amount (or urinary sodium excretion amount) in rats was standardized corrected against respective dietary phosphorus (or sodium) intake, and the formula was: standardized correction value of urinary phosphorus excretion amount (indicated as nP)=urinary phosphorus excretion amount÷dietary phosphorus intake amount; standardized correction value of urinary sodium excretion amount (indicated as nNa)=urinary sodium excretion amount÷dietary sodium intake amount; fecal form score was analyzed by monofactorial variance, and verified by non-parametric test. *, p<0.05; **, p<0.01; * p<0.001; ****, p<0.0001.

Sprague-Dawley rats [2] = assay: Effects of multiple administrations on serum phosphorus concentration in rats; type: in vivo, rat; conditions: for 24 h nP, course: after 15 days
Procedure: Compound D1-P1-S was evaluated by measuring serum phosphorus concentration, urinary phosphorus, urinary sodium concentration and fecal form in rats.
as §1, with “Tenapanor 0.05” for “tenapanor 0.3 mg/kg group, n=5; D1-P1-S 0.03 mg/kg group, n=5; D1-P1-S 0.1”, “0.01” for “0.3”, “D1-P1-S 0.05 mg/kg, n=5; D1-P1-S 0.5 mg/kg, n=5; D1-P1-S 1.0” for “D1-P1-S1.0”
After the start of the experiment, the feeding rhythm of the rats was adjusted to diurnal feeding by fasting overnight for 16 hours and recovering feed for 8 hours during the day. After the administration started, the test compound or the solvent (0.5% Tween 80+99.5% distilled water) was gavaged twice a day during the feeding period, with an interval of 4 hours, for 14 consecutive days. Animal body weight and food consumption were measured every day, serum phosphorus concentration (including baseline value before administration), 24-hour urinary phosphorus excretion amount, and 24-hour urinary sodium excretion amount were measured 1-2 times a week, and feces form in the collection funnel was scored (through two independent observations to assess fecal form). Standard for fecal form score: 1, normal pellets; 2, slightly soft feces (pellets adhered to the side wall of the collector due to moisture); 3, soft feces (loss the normal shape of the pellets); 4, loose and amorphous (completely loss shape, with blot pattern); 5, diarrhea (watery feces). Fecal form score (FFS) in rats was determined by averaging two independent observation scores for all rats within the same group (n=5); the vehicle group mean was 1.
After standing at room temperature for 2 hours, the blood was centrifuged at 4500 g for 10 minutes at 4° C.; and the urine was centrifuged at 3220 g for 5 minutes at 4° C., and the serum phosphorus concentration and urinary phosphorus concentration (phosphomolybdic acid UV endpoint colorimetric method), urinary sodium concentration (indirect ion electrode method) were measured.
as §2, with “error (Means±SEM), n=5 animals/group.” for “error (Means±SEM).”, “by two-way” for “by monofactorial”, “p<0.01; ***,” for “p<0.01; *”, “****, p<[…].” for “****, p<0.0001.”

[3] = 1 day of treatment at 0.01, 0.05, 0.5 and 1.0 mg/kg

CN1Cc2c(Cl)cc(Cl)cc2C(c2ccc3cn(CCOCCOCCNC(=O)NCCCCNC(=O)NCCOCCOCCn4cc5ccc([C@@H]6CN(C)Cc7c(Cl)cc(Cl)cc76)cc5n4)nc3c2)C1 (stereo partly drawn) [Embodiment D1-P1-S]
urinary phosphorus excretion amount, dose dependence (Sprague-Dawley rats [1]; single gavage 0.03-1.0 mg/kg, urine collected after 16 hours): dose-effect relationship
urinary sodium excretion amount (Sprague-Dawley rats [1]; single gavage, 16 h urine): significantly reduce
urinary phosphorus excretion amount (Sprague-Dawley rats [1]; single gavage, doses of 0.3 mg/kg and 1.0 mg/kg, 16 h urine): significantly reduce
effect in reducing urinary phosphorus excretion amount compared with Tenapanor (Sprague-Dawley rats [1]; single gavage, same dose (0.3 mg/kg)): better than Tenapanor
water content in rat feces (fecal form) (Sprague-Dawley rats [1]; single gavage, with increasing dose): tendency of increasing
24 h nNa (urinary sodium excretion / dietary sodium intake) vs solvent group (Sprague-Dawley rats [2]; [3]): decreased significantly
24 h nP (urinary phosphorus excretion / dietary phosphorus intake) vs solvent group (Sprague-Dawley rats [2]; [3]): tended to decrease
fecal form score vs solvent control (Sprague-Dawley rats [2]; 1 day of treatment at 0.05, 0.5 and 1.0 mg/kg): significantly increased
24 h nP vs solvent group (Sprague-Dawley rats [2]; 1 day of treatment, 1.0 mg/kg): significantly decreased
24 h nP vs solvent group (Sprague-Dawley rats [2]; 10 days of treatment at 0.01, 0.05, 0.5 and 1.0 mg/kg): decreased significantly
24 h nNa (Sprague-Dawley rats [2]; after 10 days of treatment, 0.01 mg/kg and 0.05 mg/kg): increasing trend
24 h nP, course (Sprague-Dawley rats [2]): tended to be stable
24 h nP, course (Sprague-Dawley rats [2]; low dose group (0.01 mg/kg)): tended to increase
serum phosphorus, course after 10 days (Sprague-Dawley rats [2]; all dose groups except the highest dose group of 1.0 mg/kg): tended to be stable
serum phosphorus concentration vs solvent control (Sprague-Dawley rats [2]; gavage twice a day, 0.5 mg/kg or 1.0 mg/kg for 4 days): significantly decreased
loose feces (Sprague-Dawley rats [2]; high doses of 0.5 mg/kg and 1.0 mg/kg, observed less often as administration continued): more severe loose feces
loose feces (Sprague-Dawley rats [2]; low dose of 0.01 mg/kg): no rats had loose feces
serum phosphorus concentration vs solvent control (Sprague-Dawley rats [2]; twice a day, 10 days of treatment at 0.01, 0.05, 0.5, 1.0 mg/kg): decreased significantly
